Laboratory results reported in patent US20220251081A1, “HETEROBICYCLIC INHIBITORS OF MAT2A AND METHODS OF USE FOR TREATING CANCER” (priority 2019, published 2022).
pIC50: −log10 of the molar value.

Molecular target: T1, MAT2A homodimer (Homo sapiens, UniProt P31153)
T1 construct: inferred from Ni sepharose purification and imidazole elution; made in house; host or cells: Sf9 insect cells, recombinant baculovirus (Bac to Bac, pFASTBAC1 vector)
Assay: Biochemical assay: inhibition of recombinant MAT2A homodimer (phosphate release, PiColorLock Gold)
Conditions: MAT2A IC50 score; read-out: Enzyme Inhibition
Experimental: Mat2A protein was expressed by recombinant baculovirus in SF9 infected cells using the Bac to Bac system cloned into the pFASTBAC1 vector (Invitrogen, Carlsbad, Calif.). Recombinant MAT2A was isolated from the cell lysate of 150 g of infected cells using HP Ni sepharose column chromatography. Recombinant MAT2A homodimer was eluted with 250 and 500 mM imidazole, and fractions containing MAT2A were identified by sodium dodecyl sulfate polyacrylamide gel electrophoresis and pooled.
For determination of the inhibitory potency of compounds against the MAT2A homodimer, protein was diluted to 4 μg/mL in assay buffer (50 mM Tris, pH 8.0, 50 mM KCl, 15 mM MgCl2, 0.3 mM EDTA, 0.005% [w/v] bovine serum albumin [BSA]). Test compound was prepared in 100% dimethyl sulfoxide (DMSO) at 50× the desired final concentration. A 1 μL volume of compound dilution was added to 40 μL of enzyme dilution and the mixture was allowed to equilibrate for 60 minutes at 25° C. The enzymatic assay was initiated by the addition of 10 μL of substrate mix (500 μM ATP, pH 7.0, 40 μM L-methionine in 1× assay buffer), and the mixture was incubated for a further 60 minutes at 25° C. The reaction was halted and the liberated phosphate released by the enzyme in stoichiometric amounts by the production of S-adenosyl methionine (SAM) was measured using the PiColorLock Gold kit (Innova Biosciences, UK). Absolute product amounts were determined by comparison to a standard curve of potassium phosphate buffer, pH 8.0.

T1 sequence (P31153 whole entry): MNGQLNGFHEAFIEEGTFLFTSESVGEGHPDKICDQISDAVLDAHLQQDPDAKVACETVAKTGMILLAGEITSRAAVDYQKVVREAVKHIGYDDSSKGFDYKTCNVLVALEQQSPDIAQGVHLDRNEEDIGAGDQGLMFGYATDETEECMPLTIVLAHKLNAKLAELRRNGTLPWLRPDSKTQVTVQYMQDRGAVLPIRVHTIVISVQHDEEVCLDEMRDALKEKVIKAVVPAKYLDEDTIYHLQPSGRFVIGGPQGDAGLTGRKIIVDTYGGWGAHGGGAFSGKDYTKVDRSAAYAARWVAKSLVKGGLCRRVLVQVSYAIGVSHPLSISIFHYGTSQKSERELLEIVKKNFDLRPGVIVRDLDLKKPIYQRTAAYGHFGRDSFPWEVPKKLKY

SMILES	pIC50
COc1ccc(-c2cc3ccc(NCC(F)(F)F)nc3n(-c3ccc(C4CC4)nc3)c2=O)cc1 [Example 134]	> 7.00
CCNc1ccc2cc(-c3ccc4nn(C)cc4c3)c(=O)n(-c3ccc(N)nc3)c2n1 [Example 312]	> 7.00
COc1ccc(-c2cc3ccc(NCC(F)(F)F)nc3n(-c3ccc(Cl)cc3)c2=O)cc1 [Example 133]	> 7.00
COc1ccc(-n2c(=O)c(-c3ccc4ncccc4c3)cc3cnc(SC)nc32)cc1 [Example 114]	6.00 to 7.00
CCOc1ccc2cc(-c3ccc(OC)cc3)c(=O)n(-c3ccc(C)nc3)c2n1 [Example 136, 7-ethoxy-3-(4-methoxyphenyl)-1-(6-methylpyridin-3-yl)-1,8-naphthyridin-2(1H)-one]	> 7.00
COc1ccc(-c2cc3cnc(NCC(F)(F)F)nc3n(-c3ccc4[nH]ccc4c3)c2=O)cc1 [Example 128]	6.00 to 7.00
CCOc1ccc2cc(-c3ccc(OC)cc3)c(=O)n(-c3ccc(OC(F)(F)F)nc3)c2n1 [Example 156]	6.00 to 7.00
COc1ccc(-n2c(=O)c(-c3ccc4c(c3)C(C)(C)CO4)cc3cnc(NCC(F)(F)F)nc32)cc1 [Example 190]	> 7.00
CCOc1ccc2cc(-c3ccc4nn(CC(C)(C)O)cc4c3)c(=O)n(-c3ccc(OC(F)(F)F)nc3)c2n1 [Example 212]	> 7.00
COc1ccc(-c2cc3cnc(NCC(F)(F)F)nc3n(-c3ccc(C#N)cc3)c2=O)cc1 [Example 117]	6.00 to 7.00
COc1ccc(-c2cc3cnc(NCC(F)(F)F)nc3n(-c3ccc(OC(F)(F)F)cc3)c2=O)cc1 [Example 109]	6.00 to 7.00
CCOc1ccc2cc(-c3ccc(OC)cc3)c(=O)n(-c3ccc(C(F)(F)F)cc3)c2n1 [Example 141]	> 7.00
CCOc1ccc2cc(-c3ccc4nn(C)cc4c3)c(=O)n(-c3ccc(C)nc3)c2n1 [Example 137]	> 7.00
[2H]C([2H])([2H])Oc1ccc(-c2cc3ccc(NCC(F)(F)F)nc3n(-c3ccc(OC([2H])([2H])[2H])cc3)c2=O)cc1 [Example 306]	> 7.00
COc1ccc(-c2cc3cnc(NCC(F)(F)F)nc3n(-c3ccncc3)c2=O)cc1 [Example 107]	6.00 to 7.00
COc1ccc(-c2cc3cnc(SC)nc3n(-c3ccc(C(F)(F)F)cc3)c2=O)cc1 [Example 111]	5.00 to 6.00
COc1ccc(-c2cc3cnc(S(C)(=O)=O)nc3n(-c3ccccc3)c2=O)cc1 [Example 104]	5.00 to 6.00
COc1ccc(-c2cc3cnc(NCC(F)(F)F)nc3n(-c3ccc4sccc4c3)c2=O)cc1 [Example 125, 8-(benzo[b]thiophen-5-yl)-6-(4-methoxyphenyl)-2-(2,2,2-trifluoroethylamino)pyrido[2,3-d]pyrimidin-7(8H)-one]	> 7.00
Cn1cc(-c2cc3cnc(NCC(F)(F)F)nc3n(-c3ccc(-c4cc[nH]n4)cc3)c2=O)ccc1=O [Example 234, 8-(4-(1H-pyrazol-5-yl)phenyl)-6-(1-methyl-6-oxo-1,6-dihydropyridin-3-yl)-2-(2,2,2-trifluoroethylamino)pyrido[2,3-d]pyrimidin-7(8H)-one]	> 7.00
CCOc1ccc2cc(-c3ccc(OC)cc3)c(=O)n(-c3cnc(NC)nc3)c2n1 [Example 143]	> 7.00
COc1ccc(-c2cc3cnc(NCC4CC4)nc3n(-c3ccccc3)c2=O)cc1 [Example 102]	6.00 to 7.00
COc1ccc(-n2c(=O)c(-c3ccc4c(c3)OC(C)(C)O4)cc3cnc(NCC(F)(F)F)nc32)cc1 [Example 191]	6.00 to 7.00
COc1ccc(-c2cc3cnc(NCC(F)(F)F)nc3n(-c3ccc(C(F)(F)F)cc3)c2=O)cc1 [Example 112]	> 7.00
CCNc1ccc2nc(-c3ccc4nn(C)cc4c3)c(=O)n(-c3ccc(C)nc3)c2n1 [Example 337]	> 7.00
COc1ccc(-c2cc3cnc(NCC(F)(F)F)nc3n(-c3ccccc3)c2=O)cc1 [Example 103]	6.00 to 7.00
COc1ccc(-n2c(=O)c(-c3ccc(OC)c(F)c3)cc3cnc(NCC(F)(F)F)nc32)cc1 [Example 184]	6.00 to 7.00

SMILES	pIC50
O=c1c(-c2ccc3nccn3c2)cc2cnc(NCC(F)(F)F)nc2n1-c1ccc(C2CC2)cc1 [Example 192]	> 7.00
COc1ccc(-c2cc3cnc(NCC(F)(F)F)nc3n(-c3ccc(Cl)cc3)c2=O)cc1 [Example 126]	> 7.00
COc1ccc(-n2c(=O)c(-c3ccc(OC)cn3)cc3cnc(NCC(F)(F)F)nc32)cc1 [Example 175]	6.00 to 7.00
COc1ccc(-n2c(=O)c(-c3ccc4nncn4c3)cc3cnc(NCC(F)(F)F)nc32)cc1 [Example 182]	5.00 to 6.00
COc1ccc(-n2c(=O)c(-c3ccc4nn(CCO)cc4c3)cc3ccc(OCC(F)(F)F)nc32)cc1 [Example 323]	> 7.00
CN(C)c1ccc(-n2c(=O)c(-c3ccc4nn(C)cc4c3)cc3ccc(OCC(F)(F)F)nc32)cn1 [Example 315]	> 7.00
Cn1cc2cc(-c3nc4ccc(OCC(F)(F)F)nc4n(-c4ccc(Cl)cc4)c3=O)ccc2n1 [Example 339]	> 7.00
Cn1cc2cc(-c3cc4ccc(NCC(F)(F)F)nc4n(-c4ccc(C5CC5)nc4)c3=O)ccc2n1 [Example 311]	> 7.00
COc1ccc(-c2cc3cnc(SC)nc3n(-c3ccc(OC(F)(F)F)cc3)c2=O)cc1 [Example 108]	5.00 to 6.00
CCOc1ccc2cc(-c3ccc4nn(CC(C)(C)C)cc4c3)c(=O)n(-c3ccc(Cl)cc3)c2n1 [Example 211]	> 7.00
CCOc1ccc2cc(-c3ccc(OC)cc3)c(=O)n(-c3ccc(Cl)cc3)c2n1 [Example 154]	> 7.00
COc1ccc(-n2c(=O)c(-c3ccncc3)cc3cnc(NCC(F)(F)F)nc32)cc1 [Example 181]	6.00 to 7.00
Cn1cc(-c2cc3cnc(NCC(F)(F)F)nc3n(-c3ccc(C4CC4)cc3)c2=O)ccc1=O [Example 193]	> 7.00
[2H]C([2H])([2H])Nc1ccc(-n2c(=O)c(-c3ccc4nn(C)cc4c3)cc3ccc(OCC)nc32)cn1 [Example 146]	> 7.00
COc1ccc(-c2cc3ccc(NCC(F)(F)F)nc3n(-c3ccc(C4CC4)cc3)c2=O)cc1 [Example 132]	> 7.00
CN(C)c1ccc(-n2c(=O)c(-c3ccc4nn(C)cc4c3)nc3ccc(OCC(F)(F)F)nc32)cn1 [Example 349, 4-(6-(dimethylamino)pyridin-3-yl)-2-(2-methyl-2H-indazol-5-yl)-6-(2,2,2-trifluoroethoxy)pyrido[2,3-b]pyrazin-3(4H)-one]	> 7.00
COc1ccc(-n2c(=O)c(-c3ccc(S(C)(=O)=O)cc3)cc3cnc(NCC(F)(F)F)nc32)cc1 [Example 179]	6.00 to 7.00
CCNc1ccc2nc(-c3ccc4nn(C)cc4c3)c(=O)n(-c3ccc(C4CC4)nc3)c2n1 [Example 336]	> 7.00
COc1ccc(-c2cc3cnc(S(C)(=O)=O)nc3n(-c3ccc(O)cc3)c2=O)cc1 [Example 105]	5.00 to 6.00
Cn1cc2cc(-c3nc4ccc(OCC(F)(F)F)nc4n(-c4ccc(N)nc4)c3=O)ccc2n1 [Example 350, 4-(6-aminopyridin-3-yl)-2-(2-methyl-2H-indazol-5-yl)-6-(2,2,2-trifluoroethoxy)pyrido[2,3-b]pyrazin-3(4H)-one]	6.00 to 7.00
COc1ccc(-n2c(=O)c(-c3ccc(OC)c(C)c3)cc3cnc(NCC(F)(F)F)nc32)cc1 [Example 178]	6.00 to 7.00
CNC(=O)c1ccc(-c2cc3cnc(NCC(F)(F)F)nc3n(-c3ccc(OC)cc3)c2=O)cc1 [Example 170, 4-(8-(4-methoxyphenyl)-7-oxo-2-(2,2,2-trifluoroethylamino)-7,8-dihydropyrido[2,3-d]pyrimidin-6-yl)-N-methylbenzamide]	6.00 to 7.00
CCOc1ccc2cc(-c3ccc(OC(F)F)cc3)c(=O)n(-c3ccc(OC(F)F)cc3)c2n1 [Example 198]	> 7.00
COc1ccc(-c2cc3cnc(SC)nc3n(-c3ccc(Cl)cc3)c2=O)cc1 [Example 110]	6.00 to 7.00
COc1ccc(-c2cc3cnc(SC)nc3n(-c3ccc(OC)cc3)c2=O)cc1 [Example 113]	6.00 to 7.00
CCOc1ccc2cc(-c3ccc(OCCN(C)C)cc3)c(=O)n(-c3ccc(OC(F)F)cc3)c2n1 [Example 206]	> 7.00
